Measured values reported in ChEMBL document CHEMBL1201862, “PubChem BioAssay data set” (2004).
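Grown in 96-well plates, cells were treated for 48 hours with each compound at five concentrations. Insufficient inhibition: endpoint recorded as highest concentration tested. GI50 = concentration required for 50% inhibition of growth.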 The source made the active and inactive calls. Rule as the data show it: active = GI50 up to about 1.1 µM and inactive = higher.

What was measured:
Assay in all cases: NCI-60 cell line screen, 48 h
ACHN = system: ACHN
CAKI-1 = system: CAKI-1
COLO 205 = system: COLO 205
HCC 2998 = system: HCC 2998
HCT-116 = system: HCT-116
HOP-62 = system: HOP-62
MOLT-4 = system: MOLT-4
NCI-H226 = system: NCI-H226
NCI-H460 = system: NCI-H460
OVCAR-4 = system: OVCAR-4
OVCAR-5 = system: OVCAR-5
SF-295 = system: SF-295
SK-MEL-5 = system: SK-MEL-5
TK-10 = system: TK-10
UACC-257 = system: UACC-257
UACC-62 = system: UACC-62

Measured: GI50

CCOC(=O)C1=C(C)N(c2ccccc2)C2=C(C(=O)N(c3ccccc3)C2c2ccccc2)C1c1ccccc1 (configuration not stated)
inactive: ACHN > 100 µM | CAKI-1 > 100 µM | COLO 205 > 100 µM | HCC 2998 > 100 µM | HCT-116 > 100 µM | HOP-62 > 100 µM | MOLT-4 > 100 µM | NCI-H226 > 100 µM | NCI-H460 > 100 µM | OVCAR-4 > 100 µM | OVCAR-5 > 100 µM | SF-295 > 100 µM | SK-MEL-5 > 100 µM | TK-10 > 100 µM | UACC-257 > 100 µM | UACC-62 > 100 µM

CCOC1(COP(=O)(OCc2ccccc2)OCc2ccccc2)COC(COP(=O)(OCc2ccccc2)OCc2ccccc2)(OCC)CO1 (configuration not stated)
inactive: ACHN 7.82 µM | CAKI-1 > 100 µM | COLO 205 > 100 µM | HCC 2998 > 100 µM | HCT-116 > 100 µM | HOP-62 > 100 µM | MOLT-4 17.4 µM | NCI-H226 89.7 µM | NCI-H460 95.7 µM | OVCAR-4 4.61 µM | OVCAR-5 > 100 µM | SF-295 > 100 µM | SK-MEL-5 > 100 µM | TK-10 > 100 µM | UACC-257 > 100 µM | UACC-62 > 100 µM

NCCOc1ccc(/C(=C(/Cl)c2ccccc2)c2ccccc2)cc1
inactive: ACHN 14 µM | CAKI-1 8.34 µM | COLO 205 1.89 µM | HCC 2998 4.34 µM | HCT-116 7.19 µM | HOP-62 17.9 µM | MOLT-4 3.14 µM | NCI-H226 18.7 µM | NCI-H460 7.14 µM | OVCAR-4 13 µM | OVCAR-5 16.7 µM | SF-295 14.4 µM | SK-MEL-5 9.1 µM | TK-10 12.9 µM | UACC-257 10.8 µM | UACC-62 11 µM

CC(=O)C1CC=C(C)CC1 (configuration not stated)
inactive: ACHN > 100 µM | CAKI-1 > 100 µM | COLO 205 > 100 µM | HCC 2998 > 100 µM | HCT-116 > 100 µM | HOP-62 > 100 µM | MOLT-4 > 100 µM | NCI-H226 > 100 µM | NCI-H460 > 100 µM | OVCAR-4 > 100 µM | OVCAR-5 > 100 µM | SF-295 > 100 µM | SK-MEL-5 > 100 µM | TK-10 > 100 µM | UACC-257 > 100 µM | UACC-62 > 100 µM

O=C1C=CC(=O)C2C1Cc1ccccc1C2c1ccccc1 (configuration not stated)
inactive: ACHN 50.4 µM | CAKI-1 59 µM | COLO 205 19.5 µM | HCC 2998 21.7 µM | HCT-116 37.6 µM | HOP-62 > 100 µM | MOLT-4 32.7 µM | NCI-H226 65.5 µM | NCI-H460 29.9 µM | OVCAR-4 20.5 µM | OVCAR-5 > 100 µM | SF-295 > 100 µM | SK-MEL-5 64 µM | TK-10 74.1 µM | UACC-257 28.1 µM | UACC-62 > 100 µM

Cn1cccc(C(=O)c2ccccc2)c1=O
inactive: ACHN > 100 µM | CAKI-1 > 100 µM | COLO 205 > 100 µM | HCC 2998 > 100 µM | HCT-116 > 100 µM | HOP-62 > 100 µM | MOLT-4 > 100 µM | NCI-H226 > 100 µM | NCI-H460 > 100 µM | OVCAR-4 > 100 µM | OVCAR-5 > 100 µM | SF-295 > 100 µM | SK-MEL-5 > 100 µM | TK-10 > 100 µM | UACC-257 > 100 µM | UACC-62 > 100 µM

CCC/C=C\C=C\C1(NS(=O)(=O)c2ccc(C)cc2)CCC(C(C)(C)C)CC1 (configuration not stated)
inactive: ACHN 18.2 µM | CAKI-1 19.6 µM | COLO 205 14.5 µM | HCC 2998 16.9 µM | HCT-116 15.4 µM | HOP-62 20.7 µM | MOLT-4 7.1 µM | NCI-H226 20.5 µM | NCI-H460 14.6 µM | OVCAR-4 17.1 µM | OVCAR-5 21.5 µM | SF-295 19.9 µM | SK-MEL-5 16.7 µM | TK-10 24.9 µM | UACC-257 16.8 µM | UACC-62 21.3 µM
